Experimental data taken from the kinase profiling compilation of Christmann-Franck et al. (2016).

Legend:
Assay in all cases: radiometric filter-binding kinase assay
HIPK1 (human) = HIPK1 (human) (UniProt Q86Z02)
[1] = system: PAK2 (human), Q13177 [T402E]
GCK (human) = GCK (human) (UniProt Q12851)
EEF2K (human) = EEF2K (human) (UniProt O00418)
TAOK1 (human) = TAOK1 (human) (UniProt Q7L7X3)
HIPK2 (human) = HIPK2 (human) (UniProt Q9H2X6)
MYLK (human) = MYLK (human) (UniProt Q15746)
MAP2K2 (human) = MAP2K2 (human) (UniProt P36507)
[2] = system: AKT2 (human), P31751 [S474D]
MAPK9 (human) = MAPK9 (human) (UniProt P45984)
IGF1R (human) = IGF1R (human) (UniProt P08069)
MAP3K9 (human) = MAP3K9 (human) (UniProt P80192)
MAP3K9 (human), sequence (P80192 whole entry, looked up): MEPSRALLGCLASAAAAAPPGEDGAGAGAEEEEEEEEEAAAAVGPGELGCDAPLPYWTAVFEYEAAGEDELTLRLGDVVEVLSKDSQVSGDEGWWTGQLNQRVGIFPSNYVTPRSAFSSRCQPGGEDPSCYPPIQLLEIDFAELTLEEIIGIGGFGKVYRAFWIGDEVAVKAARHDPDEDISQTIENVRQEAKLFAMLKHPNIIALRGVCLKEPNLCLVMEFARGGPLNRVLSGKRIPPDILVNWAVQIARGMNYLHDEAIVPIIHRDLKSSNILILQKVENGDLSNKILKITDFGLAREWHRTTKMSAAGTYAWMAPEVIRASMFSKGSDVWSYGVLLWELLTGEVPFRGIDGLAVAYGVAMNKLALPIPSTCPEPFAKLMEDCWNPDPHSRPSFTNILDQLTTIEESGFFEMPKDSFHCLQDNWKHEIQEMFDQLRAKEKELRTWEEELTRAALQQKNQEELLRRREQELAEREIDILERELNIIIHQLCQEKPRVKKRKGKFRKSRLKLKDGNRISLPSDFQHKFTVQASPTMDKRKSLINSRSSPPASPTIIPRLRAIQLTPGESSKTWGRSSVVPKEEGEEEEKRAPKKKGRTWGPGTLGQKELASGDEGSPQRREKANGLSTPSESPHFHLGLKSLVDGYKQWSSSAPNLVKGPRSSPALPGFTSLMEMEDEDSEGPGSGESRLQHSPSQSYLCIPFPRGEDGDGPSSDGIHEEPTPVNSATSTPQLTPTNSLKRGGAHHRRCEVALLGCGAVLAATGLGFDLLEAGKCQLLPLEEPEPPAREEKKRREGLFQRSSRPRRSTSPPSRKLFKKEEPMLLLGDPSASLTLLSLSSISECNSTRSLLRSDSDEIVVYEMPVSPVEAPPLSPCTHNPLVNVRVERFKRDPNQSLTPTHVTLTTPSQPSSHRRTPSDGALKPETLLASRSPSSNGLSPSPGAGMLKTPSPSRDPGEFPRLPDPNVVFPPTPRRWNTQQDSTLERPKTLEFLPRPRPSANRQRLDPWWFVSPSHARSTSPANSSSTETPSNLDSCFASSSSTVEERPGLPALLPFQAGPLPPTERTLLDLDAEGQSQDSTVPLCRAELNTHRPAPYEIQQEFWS

[3] = target: STK11 CAB39 STRADA (human) (UniProt Q9Y376+Q7RTN6+Q15831)
AURKB (human) = AURKB (human) (UniProt Q96GD4)
EPHB4 (human) = EPHB4 (human) (UniProt P54760)
MAP3K5 (human) = MAP3K5 (human) (UniProt Q99683)
MARK4 (human) = MARK4 (human) (UniProt Q96L34)
MAPK13 (human) = MAPK13 (human) (UniProt O15264); details: compound 1.0 µM
GSK3B (human) = GSK3B (human) (UniProt P49841)
TTK (human) = TTK (human) (UniProt P33981)
MAP3K1 (human) = MAP3K1 (human) (UniProt Q13233)
FGFR1 (human) = FGFR1 (human) (UniProt P11362)
PKN2 (human) = PKN2 (human) (UniProt Q16513)
PKN2 (human), sequence (Q16513 whole entry, looked up): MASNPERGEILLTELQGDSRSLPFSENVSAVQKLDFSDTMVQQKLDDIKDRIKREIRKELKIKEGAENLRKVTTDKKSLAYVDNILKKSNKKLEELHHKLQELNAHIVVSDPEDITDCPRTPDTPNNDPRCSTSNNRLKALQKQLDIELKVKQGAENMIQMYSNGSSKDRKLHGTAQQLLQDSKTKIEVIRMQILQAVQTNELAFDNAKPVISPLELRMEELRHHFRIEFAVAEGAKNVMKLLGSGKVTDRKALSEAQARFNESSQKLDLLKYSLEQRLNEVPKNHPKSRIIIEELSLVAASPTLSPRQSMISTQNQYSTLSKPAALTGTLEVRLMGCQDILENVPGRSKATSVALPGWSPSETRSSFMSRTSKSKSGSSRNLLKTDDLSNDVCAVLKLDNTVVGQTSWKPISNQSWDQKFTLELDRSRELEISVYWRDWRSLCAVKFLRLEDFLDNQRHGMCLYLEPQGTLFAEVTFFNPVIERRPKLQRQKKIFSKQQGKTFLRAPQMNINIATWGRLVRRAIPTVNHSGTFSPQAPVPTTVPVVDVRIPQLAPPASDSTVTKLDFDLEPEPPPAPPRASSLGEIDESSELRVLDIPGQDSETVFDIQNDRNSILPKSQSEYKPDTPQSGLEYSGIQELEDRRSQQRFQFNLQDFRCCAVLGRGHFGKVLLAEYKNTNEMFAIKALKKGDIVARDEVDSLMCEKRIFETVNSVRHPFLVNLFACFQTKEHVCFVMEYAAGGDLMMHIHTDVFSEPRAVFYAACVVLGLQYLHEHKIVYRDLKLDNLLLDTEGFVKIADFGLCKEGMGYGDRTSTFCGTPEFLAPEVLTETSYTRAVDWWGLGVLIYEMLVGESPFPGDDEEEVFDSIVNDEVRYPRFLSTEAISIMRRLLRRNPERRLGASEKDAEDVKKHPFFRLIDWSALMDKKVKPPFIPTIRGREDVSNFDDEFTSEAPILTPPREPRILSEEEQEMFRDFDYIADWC

CSNK1D (human) = CSNK1D (human) (UniProt P48730)
SYK (human) = SYK (human) (UniProt P43405); details: compound 10.0 µM
SRC (human) = SRC (human) (UniProt P12931)
SRC (human), sequence (P12931 whole entry, looked up): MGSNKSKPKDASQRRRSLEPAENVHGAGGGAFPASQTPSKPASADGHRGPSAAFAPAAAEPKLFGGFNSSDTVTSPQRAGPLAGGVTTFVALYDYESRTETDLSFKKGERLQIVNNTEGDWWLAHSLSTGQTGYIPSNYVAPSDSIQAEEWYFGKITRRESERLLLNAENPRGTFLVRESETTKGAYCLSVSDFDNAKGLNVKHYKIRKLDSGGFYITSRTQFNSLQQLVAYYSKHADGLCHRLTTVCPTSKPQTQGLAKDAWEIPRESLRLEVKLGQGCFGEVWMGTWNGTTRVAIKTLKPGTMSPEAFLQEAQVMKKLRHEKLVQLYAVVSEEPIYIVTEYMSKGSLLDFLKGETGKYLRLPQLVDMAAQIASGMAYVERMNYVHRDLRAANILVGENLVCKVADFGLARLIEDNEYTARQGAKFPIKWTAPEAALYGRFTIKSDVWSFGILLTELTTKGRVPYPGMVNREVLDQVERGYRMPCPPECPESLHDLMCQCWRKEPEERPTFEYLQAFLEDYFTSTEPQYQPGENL

EPHB1 (human) = EPHB1 (human) (UniProt P54762)
MAPK10 (human) = MAPK10 (human) (UniProt P53779)
MAPK10 (human), sequence (P53779 whole entry, looked up): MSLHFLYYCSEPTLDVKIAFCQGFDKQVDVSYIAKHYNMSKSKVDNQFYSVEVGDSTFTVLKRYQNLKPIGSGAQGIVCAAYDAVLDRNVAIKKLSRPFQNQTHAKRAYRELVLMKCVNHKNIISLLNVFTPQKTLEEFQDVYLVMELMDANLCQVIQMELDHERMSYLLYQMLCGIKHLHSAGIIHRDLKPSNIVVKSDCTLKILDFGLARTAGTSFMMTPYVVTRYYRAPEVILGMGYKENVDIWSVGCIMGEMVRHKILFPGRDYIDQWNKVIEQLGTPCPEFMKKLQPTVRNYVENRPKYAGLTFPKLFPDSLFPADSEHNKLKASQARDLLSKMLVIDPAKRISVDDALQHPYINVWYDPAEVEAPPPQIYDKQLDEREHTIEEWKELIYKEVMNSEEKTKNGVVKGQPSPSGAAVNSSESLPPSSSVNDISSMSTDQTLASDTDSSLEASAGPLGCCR

MAPK1 (human) = MAPK1 (human) (UniProt P28482)
FLT1 (human) = FLT1 (human) (UniProt P17948)
FLT1 (human), sequence (P17948 whole entry, looked up): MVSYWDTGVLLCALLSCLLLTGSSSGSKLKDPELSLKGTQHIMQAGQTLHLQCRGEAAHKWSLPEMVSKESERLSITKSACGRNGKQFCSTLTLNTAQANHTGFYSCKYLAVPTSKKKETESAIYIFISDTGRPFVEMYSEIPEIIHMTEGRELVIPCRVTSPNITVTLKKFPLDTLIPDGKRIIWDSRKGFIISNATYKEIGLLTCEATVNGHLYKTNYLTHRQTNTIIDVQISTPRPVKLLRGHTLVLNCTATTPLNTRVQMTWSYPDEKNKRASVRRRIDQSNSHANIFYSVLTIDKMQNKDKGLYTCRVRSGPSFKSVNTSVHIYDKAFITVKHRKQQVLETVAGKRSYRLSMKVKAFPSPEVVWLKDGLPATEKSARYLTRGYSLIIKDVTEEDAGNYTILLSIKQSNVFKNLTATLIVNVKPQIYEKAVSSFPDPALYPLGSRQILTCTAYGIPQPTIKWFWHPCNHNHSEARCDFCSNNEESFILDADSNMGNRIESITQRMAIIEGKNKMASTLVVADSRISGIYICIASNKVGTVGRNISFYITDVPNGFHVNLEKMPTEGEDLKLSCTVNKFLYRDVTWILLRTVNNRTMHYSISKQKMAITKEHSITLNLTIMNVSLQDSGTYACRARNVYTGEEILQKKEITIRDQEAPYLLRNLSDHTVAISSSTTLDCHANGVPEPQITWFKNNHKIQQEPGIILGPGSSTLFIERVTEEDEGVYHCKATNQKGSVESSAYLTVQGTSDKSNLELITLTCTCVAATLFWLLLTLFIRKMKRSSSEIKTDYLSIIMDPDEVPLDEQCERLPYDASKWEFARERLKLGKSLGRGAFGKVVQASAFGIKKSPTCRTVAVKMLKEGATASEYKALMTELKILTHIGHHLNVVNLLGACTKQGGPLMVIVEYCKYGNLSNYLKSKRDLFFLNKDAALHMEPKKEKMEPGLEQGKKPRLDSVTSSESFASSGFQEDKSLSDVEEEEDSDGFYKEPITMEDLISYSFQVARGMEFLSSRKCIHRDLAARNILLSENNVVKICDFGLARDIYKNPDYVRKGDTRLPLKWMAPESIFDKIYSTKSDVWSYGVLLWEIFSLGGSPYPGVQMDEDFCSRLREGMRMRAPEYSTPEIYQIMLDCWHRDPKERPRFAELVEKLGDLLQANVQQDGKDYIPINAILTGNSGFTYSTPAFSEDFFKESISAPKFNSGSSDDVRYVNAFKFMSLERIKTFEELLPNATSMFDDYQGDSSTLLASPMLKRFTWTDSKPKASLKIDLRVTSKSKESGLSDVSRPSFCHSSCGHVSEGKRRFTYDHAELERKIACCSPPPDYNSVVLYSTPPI

CHEK1 (human) = CHEK1 (human) (UniProt O14757)
PRKCZ (human) = PRKCZ (human) (UniProt Q05513)
PRKCZ (human), sequence (Q05513 whole entry, looked up): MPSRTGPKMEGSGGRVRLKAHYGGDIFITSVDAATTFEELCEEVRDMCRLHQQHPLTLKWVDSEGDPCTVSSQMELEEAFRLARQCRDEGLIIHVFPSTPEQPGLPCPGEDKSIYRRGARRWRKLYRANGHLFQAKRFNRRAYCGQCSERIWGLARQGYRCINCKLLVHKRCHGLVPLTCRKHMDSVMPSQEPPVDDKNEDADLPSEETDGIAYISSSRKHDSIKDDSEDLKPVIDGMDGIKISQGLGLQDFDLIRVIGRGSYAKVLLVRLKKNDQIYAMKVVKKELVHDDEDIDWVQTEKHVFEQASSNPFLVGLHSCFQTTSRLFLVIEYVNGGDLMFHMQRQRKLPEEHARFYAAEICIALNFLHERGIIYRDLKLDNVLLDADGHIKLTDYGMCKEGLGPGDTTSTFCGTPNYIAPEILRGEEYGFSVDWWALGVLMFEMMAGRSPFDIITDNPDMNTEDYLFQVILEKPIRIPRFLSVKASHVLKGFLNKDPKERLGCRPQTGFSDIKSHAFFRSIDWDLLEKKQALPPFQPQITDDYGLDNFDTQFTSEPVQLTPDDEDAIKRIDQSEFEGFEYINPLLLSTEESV

MELK (human) = MELK (human) (UniProt Q14680)
YES1 (human) = YES1 (human) (UniProt P07947)
AURKA (human) = AURKA (human) (UniProt O14965)
PAK6 (human) = PAK6 (human) (UniProt Q9NQU5)

A residual activity (HIPK1 (human); compound 1.0 µM) of 92%, a residual activity (HIPK1 (human); compound 10.0 µM) of 49% and a residual activity ([1]; compound 1.0 µM) of 89% were found for `COc1cc(C(=O)N2CCOCC2)c(F)cc1Nc1ncc(C(F)(F)F)c(NC2CC2)n1` in this work. It also gave a residual activity ([1]; compound 10.0 µM) of 88%, a residual activity (GCK (human); compound 1.0 µM) of 73% and a residual activity (GCK (human); compound 10.0 µM) of 25%. The residual activity (EEF2K (human); compound 1.0 µM) was 103%, the residual activity (EEF2K (human); compound 10.0 µM) was 107% and the residual activity (TAOK1 (human); compound 1.0 µM) was 99%. It also gave a residual activity (TAOK1 (human); compound 10.0 µM) of 80%, a residual activity (HIPK2 (human); compound 1.0 µM) of 70% and a residual activity (HIPK2 (human); compound 10.0 µM) of 28%. For the same compound, the residual activity (MYLK (human); compound 1.0 µM) was 44%, the residual activity (MYLK (human); compound 10.0 µM) was 8% and the residual activity (MAP2K2 (human); compound 1.0 µM) was 118%. For the same compound, the residual activity (MAP2K2 (human); compound 10.0 µM) was 98%, the residual activity ([2]; compound 1.0 µM) was 99% and the residual activity ([2]; compound 10.0 µM) was 98%. It also gave a residual activity (MAPK9 (human); compound 1.0 µM) of 108%, a residual activity (MAPK9 (human); compound 10.0 µM) of 84% and a residual activity (IGF1R (human); compound 1.0 µM) of 35%. For the same compound, the residual activity (IGF1R (human); compound 10.0 µM) was 8%, the residual activity (MAP3K9 (human); compound 1.0 µM) was 39% and the residual activity (MAP3K9 (human); compound 10.0 µM) was 7%. It also gave a residual activity ([3]; compound 1.0 µM) of 88%, a residual activity ([3]; compound 10.0 µM) of 92% and a residual activity (AURKB (human); compound 1.0 µM) of 68%. It also gave a residual activity (AURKB (human); compound 10.0 µM) of 24%, a residual activity (EPHB4 (human); compound 1.0 µM) of 94% and a residual activity (EPHB4 (human); compound 10.0 µM) of 94%. The residual activity (MAP3K5 (human); compound 1.0 µM) was 66%, the residual activity (MAP3K5 (human); compound 10.0 µM) was 13% and the residual activity (MARK4 (human); compound 1.0 µM) was 95%. It also gave a residual activity (MARK4 (human); compound 10.0 µM) of 52%, a residual activity (MAPK13 (human)) of 97% and a residual activity (GSK3B (human); compound 1.0 µM) of 73%. It also gave a residual activity (GSK3B (human); compound 10.0 µM) of 43%, a residual activity (TTK (human); compound 1.0 µM) of 56% and a residual activity (TTK (human); compound 10.0 µM) of 31%. For the same compound, the residual activity (MAP3K1 (human); compound 1.0 µM) was 90%, the residual activity (MAP3K1 (human); compound 10.0 µM) was 109% and the residual activity (FGFR1 (human); compound 1.0 µM) was 97%. For the same compound, the residual activity (FGFR1 (human); compound 10.0 µM) was 104%, the residual activity (PKN2 (human); compound 1.0 µM) was 84% and the residual activity (PKN2 (human); compound 10.0 µM) was 82%. For the same compound, the residual activity (CSNK1D (human); compound 1.0 µM) was 95%, the residual activity (CSNK1D (human); compound 10.0 µM) was 67% and the residual activity (SYK (human)) was 44%. The residual activity (SRC (human); compound 1.0 µM) was 107%, the residual activity (SRC (human); compound 10.0 µM) was 81% and the residual activity (EPHB1 (human); compound 1.0 µM) was 93%. For the same compound, the residual activity (EPHB1 (human); compound 10.0 µM) was 91%, the residual activity (MAPK10 (human); compound 1.0 µM) was 80% and the residual activity (MAPK10 (human); compound 10.0 µM) was 48%. The residual activity (MAPK1 (human); compound 1.0 µM) was 95%, the residual activity (MAPK1 (human); compound 10.0 µM) was 55% and the residual activity (FLT1 (human); compound 1.0 µM) was 55%. It also gave a residual activity (FLT1 (human); compound 10.0 µM) of 14%, a residual activity (CHEK1 (human); compound 1.0 µM) of 58% and a residual activity (CHEK1 (human); compound 10.0 µM) of 25%. The residual activity (PRKCZ (human); compound 1.0 µM) was 101%, the residual activity (PRKCZ (human); compound 10.0 µM) was 86% and the residual activity (MELK (human); compound 1.0 µM) was 91%. The residual activity (MELK (human); compound 10.0 µM) was 39%, the residual activity (YES1 (human); compound 1.0 µM) was 89% and the residual activity (YES1 (human); compound 10.0 µM) was 110%. It also gave a residual activity (AURKA (human); compound 1.0 µM) of 105%, a residual activity (AURKA (human); compound 10.0 µM) of 81% and a residual activity (PAK6 (human); compound 1.0 µM) of 94%. For the same compound, the residual activity (PAK6 (human); compound 10.0 µM) was 94%.
